From patent US20030157182A1, “Pharmaceutical preparations and their manufacture” (priority 2000, published 2003)

Assays:
[1] = Particle size distribution by volume, Malvern Mastersizer 2000; assay type: physicochemical; conditions: for d(0.5): volume median diameter, μm
Description: (§1) Using the Malvern Mastersizer 2000 we have examined the particle size by volume of a range of materials. The Mastersizer 2000 utilises a log-normal scale for description of particle sizes. We have then examined the data statistically to determine normalized Kurtosis by copying the particle size data into Microsoft Excel and performing the “KURT” function according to the method given in Example 1. Kurtosis values for those materials are given in Table 1 along with volume median diameters. A mesokurtic normal distribution has a normalized Kurtosis value of zero.
(i) The active particles were suspended (using stirring and sonication) in cyclohexane with 0.1% lecithin. Sufficient active particles were used to ensure the necessary obscuration;
(ii) The suspension was placed in the wet cell of the Malvern Mastersizer 2000 and the particle size distribution was measured using an appropriate lens system;
(iii) The results were analysed using the proprietary software of the Mastersizer 2000 to produce the size distribution given in Table 2.

[2] = Normalised Kurtosis of the particle size distribution (Microsoft Excel KURT function on Mastersizer classes); assay type: physicochemical; conditions: for Normalised Kurtosis: particle size by volume, Mastersizer 2000 classes, 0 = mesokurtic normal distribution; for normalized Kurtosis: positive = narrow size distribution
Description: The normalized Kurtosis is defined in formula (2) above and can be derived for a given particle size distribution by using any of a number of widely available statistical software packages, for example, Microsoft Excel.
A large number of data points is required to provide an accurate analysis of the Kurtosis of a particle size distribution. Indeed a true Kurtosis value would require the exact size of every particle in a distribution.
as §1
(iv) The results shown in Table 2 were analysed using the KURT function of Microsoft Excel which gave the normalized Kurtosis value of 6.93.

[3] = listed as paracetamol material according to the invention
[4] = listed as commercial grade of paracetamol

volume median diameter / volume median particle size ([1]; listed as milled paracetamol) [μm]	d(0.5) [1] [µm]	Normalised Kurtosis [2]	normalized Kurtosis ([2]; listed as milled paracetamol)	polydispersity of particle size distribution ([1]; FIG. 2, compared to the Sigma paracetamol starting material)	volume median diameter / volume median particle size [1, 3] [μm]	normalized Kurtosis [2]	normalized Kurtosis [2, 3]	volume median diameter / volume median particle size [1, 4] [μm]	normalized Kurtosis [2, 4]	Structure (SMILES)
12	12	−1.10	−1.1							CC(=O)Nc1ccc(O)cc1 [Paracetamol Milled Sigma, Paracetamol]
	21	6.93		much reduced polydispersity	12	6.93	6.9			CC(=O)Nc1ccc(O)cc1 [Paracetamol from Example 1, Paracetamol]
	19	−0.43						19	−0.43	CC(=O)Nc1ccc(O)cc1 [Sigma Paracetamol, Paracetamol]
